Where a name gives a salt, the structure may show the parent alone.
What follows are compounds tested on HBsAg (assay: HBsAg assay). Conditions: Hepatitis B virus, HepG2.2.15, 144 h, read-out: sAg EC50, μM, HepG2.2.15 cells, day 6.
Type: cell-based, hepatitis B virus
Experimental: Inhibition of HBsAg was determined in HepG2.2.15 cells. Cells were maintained in culture medium containing 10% fetal calf serum, […], Glutamine, penicillin/streptomycin. Cells were seeded in 96-well collagen-coated plate at a density of 30,000 cells/well. Serially diluted compounds were added to cells next day at the final DMSO concentration of 0.5%. Cells were incubated with compounds for 2-3 days, after which medium was removed. Fresh medium containing compounds was added to cells for additional 3-4 days. At day 6 after exposure of compounds, supernatant was collected, the HBsAg immunoassay (microplate-based chemiluminescence immunoassay kits, CLIA, Autobio Diagnosics Co., Zhengzhou, China, Catalog # CL0310-2) was used to determine the level of HBsAg according to manufactory instruction. Dose-response curves were generated and the EC50 value (effective concentrations that achieved 50% inhibitory effect) were determined using XLfit software. In addition, cells were seeded at a density of 5,000 cells/well for determination of cell viability in the presence and absence of compounds by using CellTiter-Glo reagent (Promega). Tables 1-3 show EC50 values obtained by the HBsAg assay for selected compounds.
In the case of `COCCCNc1cc2c(cc1Cl)-c1cc(=O)c(C(=O)O)cn1[C@H](C(C)C)CO2` [Example 61, (R)-2-Chloro-7-isopropyl-3-((3-methoxypropyl)amino)-11-oxo-6,7-dihydro-11H-benzo[f]pyrido[1,2-d][1,4]oxazepine-10-carboxylic acid], the EC50 is reported as 0.023 µM.
With `COCCOc1cc2c(cc1Cl)-c1cc(=O)c(C(=O)O)cn1C(C(C)C)CO2` (stereo not shown) [Example 29, 2-Chloro-7-isopropyl-3-(2-methoxyethoxy)-11-oxo-6,7-dihydro-11H-benzo[f]pyrido[1,2-d][1,4]oxazepine-10-carboxylic acid] the EC50 was 0.065 µM.
Work on `CC(C)C1Cc2sc(Cl)cc2-c2cc(=O)c(C(=O)O)cn21` (stereo not shown) [Example 85, 2-Chloro-5-isopropyl-9-oxo-4,9-dihydro-5H-thieno[3,2-a]quinolizine-8-carboxylic acid] yielded an EC50 of 16 µM.
`COCCCOc1cc2c(cc1Cl)-c1cc(=O)c(-c3ccccn3)cn1[C@H](C(C)C)CO2` [Example 138, (R)-2-Chloro-7-isopropyl-3-(3-methoxypropoxy)-10-(pyridin-2-yl)-6,7-dihydro-11H-benzo[f]pyrido[1,2-d][1,4]oxazepin-11-one] was tested, and the EC50 was 12 µM.
For `COCCCOc1cc2c(nc1OC)-c1cc(=O)c(C(=O)O)cn1[C@@H](C(C)C)C2` (single isomer, unassigned) [Example 21], the EC50 was 0.53 µM.
In the case of `COCCCOc1cc2c(nc1Cl)-c1cc(=O)c(C(=O)O)cn1C1(CCCC1)CO2` [Example 70, 2′-Chloro-3′-(3-methoxypropoxy)-11′-oxo-6′H,11′H-spiro[cyclopentane-1,7′-dipyrido[1,2-d:2′,3′-f][1,4]oxazepine]-10′-carboxylic acid], the EC50 is reported as 0.041 µM.
`CC(C)[C@@H]1COc2cc(OCCCCO)c(Cl)cc2-c2cc(=O)c(C(=O)O)cn21` [Example 39, (R)-2-Chloro-3-(4-hydroxybutoxy)-7-isopropyl-11-oxo-6,7-dihydro-11H-benzo[f]pyrido[1,2-d][1,4]oxazepine-10-carboxylic acid] was tested, and the EC50 was 0.014 µM.
For `COCCCOc1cc2c(cc1Cl)-c1cc(=O)c(-c3ncccn3)cn1[C@H](C(C)C)CO2` [Example 135, (R)-2-Chloro-7-isopropyl-3-(3-methoxypropoxy)-10-(pyrimidin-2-yl)-6,7-dihydro-11H-benzo[f]pyrido[1,2-d][1,4]oxazepin-11-one], the EC50 was 2 µM.
Work on `CCC1COc2cc(OC)c(Cl)cc2-c2cc(=O)c(C(=O)O)cn21` (stereo not shown) [Example 8, 2-Chloro-7-ethyl-3-methoxy-11-oxo-6,7-dihydro-11H-benzo[f]pyrido[1,2-d][1,4]oxazepine-10-carboxylic acid] yielded an EC50 of 0.42 µM.
`COCCCOc1cc2c(nc1OC)-c1cc(=O)c(-c3nnco3)cn1[C@H](C(C)C)C2` [Example 110, (S)-6-Isopropyl-2-methoxy-3-(3-methoxypropoxy)-9-(1,3,4-oxadiazol-2-yl)-5,6-dihydro-10-pyrido[1,2-h][1,7]naphthyridin-10-one] was tested, and the EC50 was 0.057 µM.
In the case of `COCCCOc1cc2c(cc1Cl)-c1cc(=O)c(N)cn1C(C(C)(C)C)C2` (stereo not shown) [Example 120, 3-Amino-6-tert-butyl-10-chloro-9-(3-methoxypropoxy)-6H,7H-pyrido[2,1-a]isoquinolin-2-one hydrochloride], the EC50 is reported as 3.9 µM.
In the case of `COc1cc2c(cc1Cl)-c1cc(=O)c(C(=O)O)cn1[C@@H](C(C)C)CO2` (single isomer, unassigned) [Example 4], the EC50 is reported as 3.4 µM.
Work on `COCCCOc1cc2c(nc1OC)-c1cc(=O)c(C(=O)O)cn1C(C(C)C)C2` (stereo not shown) [Example 20, 6-Isopropyl-2-methoxy-3-(3-methoxypropoxy)-10-oxo-5,10-dihydro-6H-pyrido[1,2-h][1,7]naphthyridine-9-carboxylic acid] yielded an EC50 of 0.005 µM.
Work on `COc1cc2c(n(C)c1=O)-c1cc(=O)c(C(=O)O)cn1[C@H](C(C)C)C2` [Example 165, (S)-6-Isopropyl-3-methoxy-1-methyl-2,10-dioxo-2,5,6,10-tetrahydro-1H-pyrido[1,2-h][1,7]naphthyridine-9-carboxylic acid] yielded an EC50 of 4.3 µM.
In the case of `CC(C)[C@@H]1CCc2cc3c(nc2-c2cc(=O)c(C(=O)O)cn21)OCCCO3` [Example 169, (S)-6-Isopropyl-2-oxo-2,6,7,8,12,13-hexahydro-111-[1,4]dioxepino[2′,3′:5,6]pyrido[2,3-c]pyrido[1,2-a]azepine-3-carboxylic acid], the EC50 is reported as 2.2 µM.
In the case of `COCCCOc1cc2c(cc1Cl)-c1cc(=NO)c(C(=O)OC)cn1C(C(C)(C)C)C2` (stereo not shown) [Example 144, Methyl 6-tert-butyl-10-chloro-2-(hydroxyimino)-9-(3-methoxypropoxy)-6H,7H-pyrido[2,1-a]isoquinoline-3-carboxylate], the EC50 is reported as 0.17 µM.
`COCCCOc1cc2c(nc1OC)-c1cc(=O)c(C(=O)O)cn1C(C)(C(C)(C)C)C2` (stereo not shown) [Example 158, 6-(Tert-butyl)-2-methoxy-3-(3-methoxypropoxy)-6-methyl-10-oxo-5,10-dihydro-6H-pyrido[1,2-h][1,7]naphthyridine-9-carboxylic acid] showed an EC50 of 0.001 µM.
`CC(C)[C@@H]1CCc2cc3c(nc2-c2cc(=O)c(C(=O)O)cn21)OCCO3` [Example 170, (S)-6-Isopropyl-2-oxo-2,6,7,8,11,12-hexahydro-[1,4]dioxino[2′,3′:5,6]pyrido[2,3-c]pyrido[1,2-a]azepine-3-carboxylic acid e] gave an EC50 of 5 µM.
Compound `COc1cc2c(cc1Cl)-c1cc(=O)c(C(=O)O)cn1[C@H](CC(C)C)CO2` (single isomer, unassigned) [Example 7] has an EC50 of 0.61 µM.
`CC(C)[C@@H]1COc2cc(OCc3ccccc3)c(Cl)nc2-c2cc(=O)c(C(=O)O)cn21` [Example 77, (R)-3-(Benzyloxy)-2-chloro-7-isopropyl-11-oxo-6,7-dihydro-11H-dipyrido[1,2-d:2′,3′-f][1,4]oxazepine-10-carboxylic acid] gave an EC50 of 3.2 µM.
Work on `CCc1cc2c(cc1OCC(F)(F)F)OC[C@@H](C(C)C)n1cc(C(=O)O)c(=O)cc1-2` [Example 58, (R)-2-Ethyl-7-isopropyl-11-oxo-3-(2,2,2-trifluoroethoxy)-6,7-dihydro-11H-benzo[f]pyrido[1,2-d][1,4]oxazepine-10-carboxylic acid] yielded an EC50 of 0.021 µM.
In the case of `Cc1cc2c(cc1OCC1CC1)OC[C@@H](C(C)C)n1cc(C(=O)O)c(=O)cc1-2` [Example 49, (R)-3-(Cyclopropylmethoxy)-7-isopropyl-2-methyl-11-oxo-6,7-dihydro-11H-benzo[f]pyrido[1,2-d][1,4]oxazepine-10-carboxylic acid], the EC50 is reported as 0.049 µM.
In the case of `CCc1cc2c(cc1OCC1CC1)OC[C@@H](C(C)C)n1cc(C(=O)O)c(=O)cc1-2` [Example 50, (R)-3-(Cyclopropylmethoxy)-2-ethyl-7-isopropyl-11-oxo-6,7-dihydro-11H-benzo[f]pyrido[1,2-d][1,4]oxazepine-10-carboxylic acid], the EC50 is reported as 0.011 µM.
Work on `COCCCOc1cc2c(nc1Cl)-c1cc(=O)c(C(=O)O)cn1C1(CO2)CC(C)C1` (stereo not shown) [Example 73, 2′-Chloro-3′-(3-methoxypropoxy)-3-methyl-11′-oxo-6′H,11′H-spiro[cyclobutane-1,7′-dipyrido[1,2-d:2′,3′-f][1,4]oxazepine]-10′-carboxylic acid] yielded an EC50 of 0.26 µM.
`COCCCOc1cc2c(cc1Cl)-c1cc(=O)c(NC(C)=O)cn1C(C(C)(C)C)C2` (stereo not shown) [Example 121, N-[6-Tert-butyl-10-chloro-9-(3-methoxypropoxy)-2-oxo-6H,7H-pyrido[2,1-a]isoquinolin-3-yl]acetamide] was tested, and the EC50 was 8.6 µM.
Compound `Cc1cc2c(cc1OCC(F)(F)F)OC[C@@H](C(C)C)n1cc(C(=O)O)c(=O)cc1-2` [Example 59, (R)-7-Isopropyl-2-methyl-11-oxo-3-(2,2,2-trifluoroethoxy)-6,7-dihydro-11H-benzo[f]pyrido[1,2-d][1,4]oxazepine-10-carboxylic acid] has an EC50 of 0.089 µM.
With `COc1ccc2c(n1)-c1cc(=O)c(C(=O)O)cn1[C@@H]2C(C)C` [Example 172, (R)-5-Isopropyl-2-methoxy-9-oxo-5,9-dihydropyrido[2,3-a]indolizine-8-carboxylic acid] the EC50 was 0.82 µM.
With `CC(C)[C@@H]1Cc2cc(O)c(O)nc2-c2cc(=O)c(C(=O)O)cn21` [Example 164, (6S)-2,3-Dihydroxy-6-isopropyl-10-oxo-5H,6H-pyrido[1,2-h]1,7-naphthyridine-9-carboxylic acid] the EC50 was 10 µM.

Same assay, conditions: read-out: sAg EC50; HepG2.2.15 cells, day 6
Compound `COc1cc2c(nc1OC)-c1cc(=O)c(C(=O)O)cn1C(C(C)C)C2` (single isomer, unassigned) [Example 25, 6-Isopropyl-2,3-dimethoxy-10-oxo-5,10-dihydro-6H-pyrido[1,2-h][1,7]naphthyridine-9-carboxylic acid] has an EC50 of 0.007 µM.
For `COCCCOc1cc2c(nc1OC)-c1cc(=O)c(C(=O)O)cn1C(C)(C(C)(C)C)C2` (single isomer, unassigned) [Example 160, 6-(Tert-butyl)-2-methoxy-3-(3-methoxypropoxy)-6-methyl-10-oxo-5,10-dihydro-6H-pyrido[1,2-h][1,7]naphthyridine-9-carboxylic acid], the EC50 was 0.038 µM.
In the case of `COCCCOc1cc2c(nc1Cl)-c1cc(=O)c(C(=O)O)cn1C1C(CCC1(C)C)O2` (single isomer, unassigned) [Example 82, 6-Chloro-7-(3-methoxypropoxy)-12,12-dimethyl-3-oxo-9a,11,12,12a-tetrahydro-3H,10H-cyclopenta[b]dipyrido[1,2-d:2′,3′-f][1,4]oxazepine-2-carboxylic acid], the EC50 is reported as 0.008 µM.
